Assay results reported in patent US20180179198A1, “TRICYCLIC MODULATORS OF TNF SIGNALING” (AbbVie Inc., priority 2015, published 2018).

biological target: TNFα trimer (Homo sapiens, UniProt P01375); test: TNFα FP Competitive Binding Assay; conditions: TNFα FP competitive binding assay; class symbols A/B/C; read-out: TNF IC50
Protocol: TNFα FP Competitive Binding Assay
• 1. Assay Buffer: Prepare 1× Assay Buffer (Water with 47 mM HEPES, 47 mM NaCl, 0.9 mM EDTA, 0.0071% Triton X-100) by adding 25 mL of 1 M HEPES, 5 mL of 5 M NaCl, 1 mL of 0.5 M EDTA, and 375 μL of a 10% Triton X-100 stock to a fresh 500 mL bottle of water. • 2. Assay Mixture: Prepare fresh Assay Mixture containing 20 nM TNFα trimer (60 nM protein) and 1 nM 2′,7′-difluoro-3′,6′-dihydroxy-N-(2-(2-(2-((4-(isoquinolin-8-yl)-3-(4-(isoquinolin-8-yl)phenethoxy)benzyl)oxy)ethoxy)ethoxy)ethyl)-3-oxo-3H-spiro[isobenzofuran-1,9′-xanthene]-5-carboxamide probe in 1× Assay Buffer.
Compound Plate Preparation
Manual 12-point 1:3 Dilution Plates: (384 well polypropylene plates)
Top concentration of compounds, 10 mM in DMSO, dispensed in rows A-O in columns 1 and 13. Compounds are serially diluted 1:3 with DMSO in columns 2-12 or 14-24 using a 16-channel Matrix pipettor. Plates stored at −20° C.
Discovery Preps 12-point 1:3 Dilution Plates: (384 well assay plates)
Top concentration, 5 mM in DMSO, of compounds placed in rows A-O in columns 1 and 13. Compounds are serially diluted 1:3 with DMSO in columns 2-12 or 14-24. Compound solutions are dispensed into replicate assay plates at 410 nL per well. Plates stored at 4° C.
TNFα FP Competitive Binding Assay Protocol
• 1. Compound plates are warmed to rt. • 2. Fresh Assay Mixture is prepared. • 3. Assay Mixture (20 μL) is dispensed each well of 384 assay plates using a Thermo Multidrop Combi or 16-channel Matrix pipettor. If Manual 12-point 1:3 Dilution Plates are to be tested, Assay Mix is dispensed into empty plates. Discovery Preps 12-point 1:3 Dilution Plates already contain 410 nL compound solution in DMSO. • 4. For Manual 12-point 1:3 Dilution Plates, 0.7 μL is manually transferred using a 16-channel Matrix pipettor to replicate assay plates containing 20 μL Assay Mixture for a final top compound concentration of 338 μM (3.4% DMSO). • 5. For Discovery Preps 12-point 1:3 Dilution Plates, 20 μL Assay Mixture added the 410 nL compound solution already in the plates yields a final top compound concentration of 100 μM (2.0% DMSO). • 6. Background subtraction controls are wells P1-P8 containing only Assay Buffer. The low % inhibition controls are wells P9-P16 containing only Assay Mix. The high % inhibition are wells P17-P24 containing only 1 nM 2′,7′-difluoro-3′,6′-dihydroxy-N-(2-(2-(2-((4-(isoquinolin-8-yl)-3-(4-(isoquinolin-8-yl)phenethoxy)benzyl)oxy)ethoxy)ethoxy)ethyl)-3-oxo-3H-spiro[isobenzofuran-1,9′-xanthene]-5-carboxamide probe in 1× Assay Buffer. • 7. Plates are incubated at […] for 18-24 h in 37° C. incubator (CO2 is off). • 8. Prior to reading the assay, the plates are placed in a dark cabinet to equilibrate at rt for one hour. • 9. Background-subtracted fluorescence polarization (mP) is measured using a PerkinElmer Envision plate reader. • 10. Raw data is entered into Assay Explorer and dose-response curves are generated using a variable slope curve.

Sequence of TNFα trimer (P01375 77-233 limits assumed): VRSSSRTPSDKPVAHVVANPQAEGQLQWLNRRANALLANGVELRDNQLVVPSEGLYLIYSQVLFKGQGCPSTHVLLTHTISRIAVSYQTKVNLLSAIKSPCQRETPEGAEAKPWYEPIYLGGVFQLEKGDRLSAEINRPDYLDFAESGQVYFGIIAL

| Compound | IC50 [nM] |
| --- | --- |
| OC1(c2ncc(-c3ccc4nc5n(c4c3)[C@@H](c3ccccc3)CC5)cn2)COC1 [AA.3] | < 1000 |
| c1ccc([C@H]2CCc3nc4ccc(-c5ccnc(OC6CCOCC6)c5)cc4n32)cc1 [AA.4] | < 1000 |
| c1ccc([C@H]2COCc3nc4ccc(-c5cnc(N6CCOCC6)nc5)nc4n32)cc1 [AB.1] | < 1000 |
| CC(C)(O)c1ncc(-c2ccc3nc4n(c3n2)[C@@H](c2ccccc2)COC4)cn1 [AB.2] | < 1000 |
| O=C1CN(c2ncc(-c3ccc4nc5n(c4n3)[C@@H](c3ccccc3)COC5)cn2)CCN1 [AB.3] | < 1000 |
| OC1CCN(c2ncc(-c3ccc4nc5n(c4n3)[C@@H](c3ccccc3)COC5)cn2)CC1 [AB.4] | < 1000 |
| O=C1NCN2CCN(c3ncc(-c4ccc5nc6n(c5n4)[C@@H](c4ccccc4)COC6)cn3)CC12 (some centres unmarked) [AB.5] | < 1000 |
| COc1ccccc1[C@H]1COCc2nc3ccc(-c4cnc(N5CCC(O)CC5)nc4)nc3n21 [AC.1] | < 1000 |
| COc1ccccc1C1CCc2nc3ccc(-c4cnc(N5CCC(O)CC5)nc4)nc3n21 (centres unmarked) [AD.1] | < 1000 |
| COc1ccccc1C1CCc2nc3ccc(-c4cnc(N5CCN6C(=O)NCC6C5)nc4)nc3n21 (centres unmarked) [AD.2] | < 1000 |
| COc1ccccc1C1CCCc2nc3ccc(-c4cnc(N5CCC(O)CC5)nc4)nc3n21 (centres unmarked) [AE.1] | < 1000 |
| O=C1NC[C@@H]2CN(c3ncc(-c4ccc5nc6c(n5c4)[C@@H](c4ccccc4)COC6)cn3)CCN12 [AF.1] | < 1000 |
| O=C1NC[C@@H]2CN(c3ncc(-c4ccc5nc6c(n5n4)[C@@H](c4ccccc4)COC6)cn3)CCN12 [AF.2] | < 1000 |
| COc1ccccc1C1CCc2nc3ccc(-c4cnc(N5CCOCC5)nc4)cn3c21 (centres unmarked) [AG.1] | < 1000 |
| O=C1NCC2CN(c3ncc(-c4ccc5nc6n(c5c4)C(c4ccccc4F)COC6)cn3)CCN12 (centres unmarked) [AH.1] | < 1000 |
| O=C1NCC2CN(c3ncc(-c4ccc5nc6n(c5c4)C(c4cccc(Cl)c4)COC6)cn3)CCN12 (centres unmarked) [AH.2] | < 1000 |
| O=C1NCC2CN(c3ncc(-c4ccc5nc6n(c5c4)[C@@H](c4ccccc4Cl)COC6)cn3)CCN12 (some centres unmarked) [AH.3] | < 1000 |
| O=C1NCC2CN(c3ncc(-c4ccc5nc6n(c5c4)C(c4cccc(C(F)(F)F)c4)COC6)cn3)CCN12 (centres unmarked) [AH.4] | < 1000 |
| O=C1NCC2CN(c3ncc(-c4ccc5nc6n(c5n4)[C@@H](C4CCCCC4)CC6)cn3)CCN12 (some centres unmarked) [AH.5] | < 1000 |
| O=C1NCC2CN(c3ncc(-c4ccc5nc6n(c5n4)C(C4CCCCC4)CC6)cn3)CCN12 (centres unmarked) [AH.6] | < 1000 |
| O=C1NCC2CN(c3ncc(-c4ccc5nc6n(c5n4)C(c4ccccc4F)COC6)cn3)CCN12 (centres unmarked) [AH.7] | < 1000 |

| Compound | IC50 [nM] |
| --- | --- |
| O=C1NCC2CN(c3ncc(-c4ccc5nc6n(c5n4)C(c4cccc(F)c4)COC6)cn3)CCN12 (centres unmarked) [AH.8] | < 1000 |
| CC1(c2ccccc2)CCc2nc3ccc(-c4cnc(N5CCN6C(=O)NCC6C5)nc4)nc3n21 (centres unmarked) [AH.9] | < 1000 |
| OC1CCN(c2ncc(-c3ccc4nc5n(c4n3)C(c3cccc(F)c3)COC5)cn2)CC1 (centres unmarked) [AI.1] | < 1000 |
| COc1ccccc1C1CCCc2nc3ccc(-c4cnc(N5CCC(O)CC5)nc4)cn3c21 (centres unmarked) [AJ.1] | < 1000 |
| COc1ccccc1C1CCCc2nc3ccc(-c4cnc(N5CCCC(O)CC5)nc4)cn3c21 (centres unmarked) [AJ.2] | < 1000 |
| COc1ccccc1C1CCCc2nc3ccc(-c4cnc(N5CCC(F)(CO)CC5)nc4)cn3c21 (centres unmarked) [AJ.3] | < 1000 |
| COc1ccccc1C1CCCc2nc3ccc(-c4cnc(N5CCC(O)C(F)(F)C5)nc4)cn3c21 (centres unmarked) [AJ.4] | < 1000 |
| COc1ccccc1C1CCCc2nc3ccc(-c4cnc(N5CCC(C)(O)CC5)nc4)cn3c21 (centres unmarked) [AJ.5] | < 1000 |
| COc1ccccc1C1CCCc2nc3ccc(-c4cnc(N5CCN6C(=O)NCC6C5)nc4)cn3c21 (centres unmarked) [AJ.6] | < 1000 |
| COc1ccccc1C1CCCc2nc3ccc(-c4cnc(N5CCCOCC5)nc4)cn3c21 (centres unmarked) [AJ.7] | < 1000 |
| COc1ccccc1C1CCCc2nc3ccc(-c4cnc(N5CCC6(CC5)CC(O)C6)nc4)cn3c21 (centres unmarked) [AJ.8] | < 1000 |
| OC[C@@H]1CCCN1c1ncc(-c2ccc3nc4n(c3n2)[C@@H](c2ccccc2)CC4)cn1 [AK.1] | 1000 to 10000 |
| CS(=O)(=O)CCn1ccc(-c2ccc3nc4n(c3n2)[C@@H](c2ccccc2)CC4)cc1=O [AK.2] | 10000 to 100000 |
| CC(C)(O)Cn1ccc(-c2ccc3nc4n(c3n2)[C@@H](c2ccccc2)CC4)cc1=O [AK.3] | 10000 to 100000 |
| CC(O)c1ncc(-c2ccc3nc4n(c3n2)[C@@H](c2ccccc2)CC4)cn1 (some centres unmarked) [AL.1] | 1000 to 10000 |
| OC(CC1CC1)c1ncc(-c2ccc3nc4n(c3n2)[C@@H](c2ccccc2)CC4)cn1 (some centres unmarked) [AL.2] | 1000 to 10000 |
| OC(c1ncc(-c2ccc3nc4n(c3n2)[C@@H](c2ccccc2)CC4)cn1)C1CCOCC1 (some centres unmarked) [AL.3] | 1000 to 10000 |
| CC(O)(c1ncc(-c2ccc3nc4n(c3n2)[C@@H](c2ccccc2)CC4)cn1)C1CCOCC1 (some centres unmarked) [AL.4] | 1000 to 10000 |
| CC(O)(CC1CC1)c1ncc(-c2ccc3nc4n(c3n2)[C@@H](c2ccccc2)CC4)cn1 (some centres unmarked) [AL.5] | 1000 to 10000 |
| COc1cccc([C@H]2CCc3nc4ccc(-c5cnc(N6CCN7C(=O)NC[C@@H]7C6)nc5)nc4n32)c1 [AM.1] | < 1000 |
| COc1cccc([C@H]2CCc3nc4ccc(-c5cnc(N6CCN(C(C)=O)[C@H](C)C6)nc5)nc4n32)c1 [AM.2, 1-((R)-4-(5-((R)-8-(3-methoxyphenyl)-7,8-dihydro-6H-pyrrolo[2′,1′:2,3]imidazo[4,5-b]pyridin-2-yl)pyrimidin-2-yl)-2-methylpiperazin-1-yl)ethanone] | < 1000 |

| Compound | IC50 [nM] |
| --- | --- |
| COc1cccc([C@@H]2CCc3nc4ccc(-c5cnc(N6CCN7C(=O)NC[C@@H]7C6)nc5)nc4n32)c1 [AN.1] | 10000 to 100000 |
| COc1ccccc1[C@H]1CCc2nc3ccc(-c4cnc(N5CCN6C(=O)NC[C@@H]6C5)nc4)nc3n21 [AO.1] | < 1000 |
| COc1ccccc1[C@H]1CCc2nc3ccc(-c4cnc(N5CCN6C(=O)NC[C@H]6C5)nc4)nc3n21 [AO.2] | < 1000 |
| COc1ccccc1[C@H]1CCc2nc3ccc(-c4cnc(N5CCC(O)CC5)nc4)nc3n21 [AO.3] | < 1000 |
| COc1ccccc1[C@H]1CCc2nc3ccc(-c4cnc(N5CCN(C(=O)CO)[C@H](C)C5)nc4)nc3n21 [AO.4] | < 1000 |
| COc1ccccc1[C@@H]1CCc2nc3ccc(-c4cnc(N5CCN6C(=O)NC[C@@H]6C5)nc4)nc3n21 [AP.1] | 1000 to 10000 |
| OC1CCC(Oc2cc(-c3ccc4nc5n(c4n3)[C@@H](c3ccccc3)CC5)ccn2)C1 (some centres unmarked) [AQ.1] | < 1000 |
| OC1CCC(Oc2cc(-c3ccc4nc5n(c4n3)[C@@H](c3ccccc3)CC5)ccn2)CC1 (some centres unmarked) [AQ.2] | < 1000 |
| c1ccc([C@H]2CCc3nc4ccc(-c5ccnc(OC6COC6)c5)nc4n32)cc1 [AQ.3] | 1000 to 10000 |
| OC1CCCC(Oc2cc(-c3ccc4nc5n(c4n3)[C@@H](c3ccccc3)CC5)ccn2)C1 (some centres unmarked) [AQ.4] | 1000 to 10000 |
| c1ccc([C@H]2CCc3nc4ccc(-c5ccnc(OCC6COC6)c5)nc4n32)cc1 [AQ.5] | 1000 to 10000 |
| CN1CC[C@@H](Oc2cc(-c3ccc4nc5n(c4n3)[C@@H](c3ccccc3)CC5)ccn2)C1 [AQ.6] | 1000 to 10000 |
| OCCOc1cc(-c2ccc3nc4n(c3n2)[C@@H](c2ccccc2)CC4)ccn1 [AQ.7] | 1000 to 10000 |
| CN1CC[C@H](Oc2cc(-c3ccc4nc5n(c4n3)[C@@H](c3ccccc3)CC5)ccn2)C1 [AQ.8] | 1000 to 10000 |
| O[C@H]1CC[C@@H](Oc2cc(-c3ccc4nc5n(c4n3)[C@@H](c3ccccc3)CC5)ccn2)CC1 [AR.1] | 1000 to 10000 |
| c1ccc([C@H]2CCc3nc4ccc(-c5ccnc(OC6CCOC6)c5)nc4n32)cc1 (some centres unmarked) [AS.1] | 1000 to 10000 |
| c1ccc([C@H]2CCc3nc4ccc(-c5ccnc(OC6CCCC6)c5)nc4n32)cc1 [AS.2] | 1000 to 10000 |
| c1ccc([C@H]2CCc3nc4ccc(-c5ccnc(OC6CCCCC6)c5)nc4n32)cc1 [AS.3] | 1000 to 10000 |
| COC(=O)C1CCC(Oc2cc(-c3ccc4nc5n(c4n3)[C@@H](c3ccccc3)CC5)ccn2)CC1 (some centres unmarked) [AS.4] | 1000 to 10000 |
| COC(=O)C1CCC(Oc2cc(-c3ccc4nc5n(c4n3)[C@@H](c3ccccc3)CC5)ccn2)C1 (some centres unmarked) [AS.5] | 1000 to 10000 |
